Measured values taken from the supplement of paper PMC11061612.

Columns and labels:
[1] = compound: C1CC(C1)(C(=O)[O-])C(=O)[O-].N.N.[Pt+2] [Carboplatin]; details: max 10 µM
Procedure, shortened: (§1)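 Plates with 1536 wells received cancer cell lines in 7.5 μl of DMEM/F12 or RPMI containing 10% FBS. After 24 hours at 37°C and 5% CO2, cells were dosed for 72 hours with final DMSO typically 0.2%, and viability was read by CellTiter-Glo 2.0 luminescence scaled between blank-well and DMSO-well means. The single-agent IC50 was taken from a logistic fit of the dose responses made with a non-linear mixed effects model, that logistic curve having two parameters.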

[2] = compound: C1CN(CCC1(C(=O)N[C@@H](CCO)C2=CC=C(C=C2)Cl)N)C3=NC=NC4=C3C=CN4 [AZD5363]; details: max 10 µM
Procedure, shortened: as §1

[3] = compound: C=CCn1c(=O)c2cnc(Nc3ccc(N4CCN(C)CC4)cc3)nc2n1-c1cccc(C(C)(C)O)n1 [AZD1775]; details: max 3 µM
Procedure, shortened: as §1

[4] = compound: CC(=O)Nc1cccc(-n2c(=O)n(C3CC3)c(=O)c3c(Nc4ccc(I)cc4F)n(C)c(=O)c(C)c32)c1 [Trametinib]; details: max 1 µM
Procedure, shortened: as §1

[5] = compound: CC(=O)O[C@H]1C(=O)[C@@]2(C)[C@H]([C@H](OC(=O)c3ccccc3)[C@]3(O)C[C@H](OC(=O)[C@H](O)[C@@H](NC(=O)c4ccccc4)c4ccccc4)C(C)=C1C3(C)C)[C@]1(OC(C)=O)CO[C@@H]1C[C@@H]2O [Paclitaxel]; details: max 3 µM
Procedure, shortened: as §1

[6] = compound: CC(=O)c1c(C)c2cnc(Nc3ccc(N4CCNCC4)cn3)nc2n(C2CCCC2)c1=O [Palbociclib]; details: max 10 µM
Procedure, shortened: as §1

[7] = compound: CC(C)n1c(=O)n(C)c2cnc3cc(F)c(-c4ccc(OCCCN5CCCCC5)nc4)cc3c21 [AZD1390]; details: max 0.3 µM
Procedure, shortened: as §1

[8] = compound: CC1(C)CCC(CN2CCN(c3ccc(C(=O)NS(=O)(=O)c4ccc(NCC5CCOCC5)c([N+](=O)[O-])c4)c(Oc4cnc5[nH]ccc5c4)c3)CC2)=C(c2ccc(Cl)cc2)C1 [Venetoclax]; details: max 1 µM
Procedure, shortened: as §1

[9] = compound: CC1=C(C(=CC=C1)Cl)NC(=O)C2=CN=C(S2)NC3=CC(=NC(=N3)C)N4CCN(CC4)CCO [Dasatinib]; details: max 2 µM
Procedure, shortened: as §1

[10] = compound: CC1=CN2[C@@H](C1)C=NC3=CC(=C(C=C3C2=O)OC)OCCCCCOC4=C(C=C5C(=C4)N=C[C@@H]6CC(=CN6C5=O)C)OC [SG3199]; details: max 0.001 µM
Procedure, shortened: as §1

[11] = compound: CCN(CCO)CCCOc1ccc2c(Nc3cc(CC(=O)Nc4cccc(F)c4)[nH]n3)ncnc2c1 [AZD2811]; details: max 1 µM
Procedure, shortened: as §1

[12] = compound: CCc1c2c(nc3ccc(O)cc13)-c1cc3c(c(=O)n1C2)COC(=O)[C@]3(O)CC [SN-38]; details: max 0.3 µM
Procedure, shortened: as §1

[13] = compound: CN(C)CCCOc1ccc(-c2ccc3ncc4c(c3c2)n(C2CCOCC2)c(=O)n4C)cn1 [AZD0156]; details: max 3 µM
Procedure, shortened: as §1

[14] = compound: CN(CC[C@H](CSC1=CC=CC=C1)NC2=C(C=C(C=C2)S(=O)(=O)NC(=O)C3=CC=C(C=C3)N4CCC(CC4)[C@H](C5=CC=CC=C5C6=CC=C(C=C6)Cl)O)S(=O)(=O)C(F)(F)F)CCO [AZD4320]; details: max 1 µM
Procedure, shortened: as §1

[15] = compound: COc1cc(Nc2ncc3c(n2)-c2ccc(Cl)cc2C(c2c(F)cccc2OC)=NC3)ccc1C(=O)O [Alisertib]; details: max 10 µM
Procedure, shortened: as §1

[16] = compound: COc1cc([C@@H]2c3cc4c(cc3[C@@H](O[C@@H]3O[C@@H]5CO[C@@H](C)O[C@H]5[C@H](O)[C@H]3O)[C@H]3COC(=O)[C@H]23)OCO4)cc(OC)c1O [Etoposide]; details: max 10 µM
Procedure, shortened: as §1

[17] = compound: COc1cc2ncnc(Nc3ccc(F)c(Cl)c3)c2cc1OCCCN1CCOCC1 [Gefitinib]; details: max 10 µM
Procedure, shortened: as §1

[18] = compound: COc1cccc(OCCCN)c1-c1cc(Nc2cnc(C#N)cn2)n[nH]1 [Prexasertib]; details: max 1 µM
Procedure, shortened: as §1

[19] = compound: COc1cccc2c1C(=O)c1c(O)c3c(c(O)c1C2=O)C[C@@](O)(C(=O)CO)C[C@@H]3O[C@H]1C[C@H](N)[C@H](O)[C@H](C)O1 [Doxorubicin]; details: max 1 µM
Procedure, shortened: as §1

[20] = compound: COc1nnc2ccc(N3CCC(c4ccc(OCCN5CCN(C)C(=O)[C@H]5C)cc4)CC3)nn12 [AZD5153]; details: max 1 µM
Procedure, shortened: as §1

[21] = compound: CS(=O)(=O)CCNCc1ccc(-c2ccc3ncnc(Nc4ccc(OCc5cccc(F)c5)c(Cl)c4)c3c2)o1 [Lapatinib]; details: max 10 µM
Procedure, shortened: as §1

[22] = compound: C[C@@H](Nc1cc(F)cc(F)c1)c1cc(C(=O)N(C)C)cc2c(=O)cc(N3CCOCC3)oc12 [AZD8186]; details: max 10 µM
Procedure, shortened: as §1

[23] = compound: C[C@@H](Oc1cc(-c2cnn(C3CCNCC3)c2)cnc1N)c1c(Cl)ccc(F)c1Cl [Crizotinib]; details: max 10 µM
Procedure, shortened: as §1

[24] = compound: C[C@@H](c1ccc2nccn2c1)n1nnc2ncc(-c3cnn(C)c3)nc21 [Savolitinib]; details: max 1 µM
Procedure, shortened: as §1

[25] = compound: C[C@@H]1COCCN1C2=NC(=NC(=C2)C3(CC3)[S@](=N)(=O)C)C4=C5C=CNC5=NC=C4 [AZD6738]; details: max 10 µM
Procedure, shortened: as §1

[26] = compound: Cc1c2c(nn1C)CSCc1cc(n(C)n1)CSc1cc(c3ccccc3c1)OCCCc1c(C(=O)O)n(C)c3c-2c(Cl)ccc13 [AZD5991]; details: max 1 µM
Procedure, shortened: as §1

[27] = compound: Cc1cc2ncnn2cc1Nc1ncc2c(n1)n(C1CCOCC1)c(=O)n2C [AZD7648]; details: max 10 µM
Procedure, shortened: as §1

[28] = compound: Cc1nc(-c2cn3c(n2)-c2ccc(-c4cnn(C(C)(C)C(N)=O)c4)cc2OCC3)n(C(C)C)n1 [Taselisib]; details: max 10 µM
Procedure, shortened: as §1

[29] = compound: Cn1cnc2c(F)c(Nc3ccc(Br)cc3Cl)c(C(=O)NOCCO)cc21 [Selumetinib]; details: max 10 µM
Procedure, shortened: as §1

[30] = compound: N#Cc1cnc(Nc2cc(NC[C@H]3CNCCO3)c(C(F)(F)F)cn2)cn1 [SRA737]; details: max 10 µM
Procedure, shortened: as §1

[31] = compound: NC1(c2ccc(-c3nc4ccn5c(=O)[nH]nc5c4cc3-c3ccccc3)cc2)CCC1 [MK-2206]; details: max 10 µM
Procedure, shortened: as §1

[32] = compound: Nc1ccn([C@@H]2O[C@H](CO)[C@@H](O)C2(F)F)c(=O)n1 [Gemcitabine]; details: max 0.3 µM
Procedure, shortened: as §1

[33] = compound: O=C(Nc1ccc2[nH]nc(-c3ccncc3)c2c1)[C@@H]1CCN(CC(=O)N2CCN(c3ccc(-c4ncccn4)cc3)CC2)C1; details: max 5 µM
Procedure, shortened: as §1

[34] = compound: O=C(c1cc(Cc2n[nH]c(=O)c3ccccc23)ccc1F)N1CCN(C(=O)C2CC2)CC1 [Olaparib]; details: max 10 µM
Procedure, shortened: as §1

[35] = compound: O=c1[nH]cc(F)c(=O)[nH]1 [5-Fluorouracil]; details: max 20 µM
Procedure, shortened: as §1

RPMI-8402 (T-Lymphoblastic Leukemia)
IC50, cell viability 72 h [1]: > 10000 nM
IC50, cell viability 72 h [2]: 2500 nM
IC50, cell viability 72 h [3]: 183 nM
IC50, cell viability 72 h [4]: > 1000 nM
IC50, cell viability 72 h [5]: 6.86 nM
IC50, cell viability 72 h [6]: 300 nM
IC50, cell viability 72 h [7]: > 300 nM
IC50, cell viability 72 h [8]: > 1000 nM
IC50, cell viability 72 h [9]: > 2000 nM
IC50, cell viability 72 h [10]: > 1 nM
IC50, cell viability 72 h [11]: 33.3 nM
IC50, cell viability 72 h [12]: 2.43 nM
IC50, cell viability 72 h [13]: > 3000 nM
IC50, cell viability 72 h [14]: 247 nM
IC50, cell viability 72 h [15]: 214 nM
IC50, cell viability 72 h [16]: 158 nM
IC50, cell viability 72 h [17]: 9050 nM
IC50, cell viability 72 h [18]: 5.84 nM
IC50, cell viability 72 h [19]: 68.1 nM
IC50, cell viability 72 h [20]: 63.1 nM
IC50, cell viability 72 h [21]: 4400 nM
IC50, cell viability 72 h [22]: 5450 nM
IC50, cell viability 72 h [23]: 1630 nM
IC50, cell viability 72 h [24]: > 1000 nM
IC50, cell viability 72 h [25]: 1300 nM
IC50, cell viability 72 h [26]: 504 nM
IC50, cell viability 72 h [27]: > 10000 nM
IC50, cell viability 72 h [28]: 1030 nM
IC50, cell viability 72 h [29]: > 10000 nM
IC50, cell viability 72 h [30]: 1320 nM
IC50, cell viability 72 h [31]: 1150 nM
IC50, cell viability 72 h [32]: 23.5 nM
IC50, cell viability 72 h [33]: 4090 nM
IC50, cell viability 72 h [34]: > 10000 nM
IC50, cell viability 72 h [35]: 9930 nM
